Experimental data: patent US8575135B2 (Gilead Sciences, Inc., priority 2011, dated 2013)
Read-outs that look alike come from different tables or passages of the source.

Key:
Test in all cases: microbe, parasite or virus in culture
[1] = test system: stable HCV 1a RLuc replicon cells (genotype 1a H77 replicon); format: cell-based; conditions: Hepatitis C virus
Description: (§1) Evaluation of Cell-Based Anti-HCV Activity:
(§2) Antiviral potency (EC50) was determined using a Renilla luciferase (RLuc)-based HCV replicon reporter assay. […] To perform the assay for genotype 2a (with M31 present in NS5A) or 2b, NS5A chimeric genotype 2a JFH-1 replicons that encodes a RLuc-Neo reporter and either genotype 2a J6 strain NS5A gene or genotype 2b MD2b-1 strain NS5A gene (both with M31 present) respectively, were either transiently transfected (t) into Huh-Lunet cells or were established as stably replicating replicon cells (s) is provided. Either cells were dispensed into 384-well plates for EC50 assays. To perform the assay for genotype 3 and 4, NS5A chimeric genotype 1b Con1 replicons that encodes a Pi-RLuc reporter and either genotype 3a S52 strain NS5A gene or genotype 4a ED43 strain NS5A gene respectively, were transiently transfected (t) into Huh-Lunet cells, which were subsequently dispensed into 384-well plates. Compounds were dissolved in DMSO at a concentration of 10 mM and diluted in DMSO either manually or using an automated pipeting instrument. Serially 3-fold diluted compounds were either manually mixed with cell culture media and added to the seeded cells or directly added to the cells using an automated instrument. […] 72 hours later, cells were lysed and Renilla luciferase activity quantified as recommended by the manufacturer (Promega-Madison, Wis.). Non-linear regression was performed to calculate EC50 values.

[2] = test system: NS5A chimeric genotype 2a JFH-1 replicon with genotype 2a J6 strain NS5A gene (M31 present); format: cell-based, HCV; conditions: Hepatitis C virus
Description: as §1, §2

[3] = test system: NS5A chimeric genotype 2a JFH-1 replicon with genotype 2b MD2b-1 strain NS5A gene (M31 present); format: cell-based, HCV; conditions: Hepatitis C virus
Description: as §1, §2

[4] = test system: NS5A chimeric genotype 1b Con1 replicon with genotype 4a ED43 strain NS5A gene; format: cell-based, HCV; conditions: Hepatitis C virus
[5] = test system: stable HCV 2a JFH-1 Rluc replicon cells (L31 present in NS5A); format: cell-based; conditions: Hepatitis C virus
[6] = test system: NS5A chimeric genotype 1b Con1 replicon with genotype 3a S52 strain NS5A gene; format: cell-based, HCV; conditions: Hepatitis C virus, read-out: 3a (nM)
Description: as §1, §2

| SMILES | EC50 ([1]; read-out: 1a) [nM] | EC50 ([1]; read-out: 1a (nM)) [nM] | EC50 ([2]; read-out: 2a J6) [nM] | EC50 ([2]; read-out: 2a Jb (t) (nM)) [nM] | EC50 ([3]; read-out: 2b) [nM] | EC50 ([3]; read-out: 2b (s) (nM)) [nM] | EC50 ([3]; read-out: 2b (t) (nM)) [nM] | EC50 ([4]; read-out: 4a) [nM] | EC50 ([4]; read-out: 4a (s) (nM)) [nM] | EC50 ([5]; read-out: 2a JFH) [nM] | EC50 ([5]; read-out: 2a JFH (nM)) [nM] | EC50 ([2]; read-out: 2a J6 (s) (nM)) [nM] | EC50 ([4]; read-out: 4a (t) (nM)) [nM] | EC50 [6] [nM] |
| --- | --- | --- | --- | --- | --- | --- | --- | --- | --- | --- | --- | --- | --- | --- |
| COC(=O)N[C@H](C(=O)N1[C@@H](C)CC[C@H]1c1ncc(-c2ccc3c(c2)COc2cc4c(ccc5nc([C@@H]6CCCN6C(=O)[C@@H](NC(=O)OC)C6CCOCC6)[nH]c54)cc2-3)[nH]1)C(C)C [Compound 602] | < 1 | 0.025 | < 1 | 0.053 | < 1 | 0.036 | 0.036 | < 1 | 0.013 | < 1 | 0.01 |  |  |  |
| CC[C@@H](C)[C@H](NC(=O)OC)C(=O)N1C[C@@H](COC)C[C@H]1c1nc2ccc3cc4c(cc3c2[nH]1)OCc1cc(-c2cnc([C@@H]3CC[C@H](C)N3C(=O)[C@@H](NC(=O)OC)[C@H](C)CC)[nH]2)ccc1-4 [Compound 643] | < 1 | 0.015 | < 1 | 0.206 | < 1 |  | 0.607 |  |  | < 1 | 0.013 |  |  |  |
| COC[C@H]1C[C@@H](c2nc3ccc4cc5c(cc4c3[nH]2)OCc2cc(-c3ccc4nc([C@@H]6CCCN6C(=O)[C@@H](NC(=O)OC)C(C)C)[nH]c4c3)ccc2-5)N(C(=O)[C@H](NC(=O)OC)c2ccccc2)C1 [Example MS] | < 1 | 0.008 | > 5 |  | > 5 | 9.56 |  | < 1 | 0.02 | < 1 | 0.005 | 15.6 | 0.014 |  |
| COC(=O)N[C@H](C(=O)N1[C@@H](C)CC[C@H]1c1ncc(-c2ccc3c(c2)COc2cc4c(ccc5nc([C@@H]6CCCN6C(=O)[C@H](N)c6ccccc6)[nH]c54)cc2-3)[nH]1)C(C)C [Example NR, Methyl [(2S)-1-{(2S,5S)-2-[5-(2-{(2S)-1-[(2R)-2-amino-2-phenylacetyl]pyrrolidin-2-yl}-1,11-dihydroisochromeno[4′,3′:6,7]naphtho[1,2-d]imidazol-9-yl)-1H-imidazol-2-yl]-5-methylpyrrolidin-1-yl}-3-methyl-1-oxobutan-2-yl]carbamate] | < 1 | 0.026 | < 1 | 0.118 | < 1 | 0.017 | 0.017 | < 1 | 0.007 | < 1 | 0.006 |  |  |  |
| CC[C@H](C)[C@H](NC(=O)OC)C(=O)N1C[C@@H](COC)C[C@H]1c1ncc(-c2ccc3c(c2)COc2cc4c(ccc5nc([C@@H]6CC[C@H](C)N6C(=O)[C@@H](NC(=O)OC)C(C)C)[nH]c54)cc2-3)[nH]1 [Example OF, Methyl {(2S,3S)-1-[(2S,4S)-2-(5-{2-[(2S,5S)-1-{(2S)-2-[(methoxycarbonyl)amino]-3-methylbutanoyl}-5-methylpyrrolidin-2-yl]-1,11-dihydroisochromeno[4′,3′:6,7]naphtho[1,2-d]imidazol-9-yl}-1H-imidazol-2-yl)-4-(methoxymethyl)pyrrolidin-1-yl]-3-methyl-1-oxopentan-2-yl}carbamate] | < 1 | 0.01 | < 1 | 0.445 | < 1 |  | 0.196 |  |  | < 1 | 0.008 |  |  |  |
| CC[C@@H](C)[C@H](NC(=O)OC)C(=O)N1C[C@@H](COC)C[C@H]1c1ncc(-c2ccc3c(c2)COc2cc4c(ccc5nc([C@@H]6CC[C@H](C)N6C(=O)[C@@H](NC(=O)OC)C(C)C)[nH]c54)cc2-3)[nH]1 [Example OG, Methyl {(2S)-1-[(2S,5S)-2-(9-{2-[(2S,4S)-1-[N-(methoxycarbonyl)-L-alloisoleucyl]-4-(methoxymethyl)pyrrolidin-2-yl]-1H-imidazol-5-yl}-1,11-dihydroisochromeno[4′,3′:6,7]naphtho[1,2-d]imidazol-2-yl)-5-methylpyrrolidin-1-yl]-3-methyl-1-oxobutan-2-yl}carbamate] | < 1 | 0.009 | < 1 | 0.601 | < 1 |  | 0.437 |  |  | < 1 | 0.008 |  |  |  |
| COC[C@H]1C[C@@H](c2ncc(-c3ccc4c(c3)COc3cc5c(ccc6nc([C@@H]7CCCN7C(=O)[C@@H](NC(=O)OC)C(C)C)[nH]c65)cc3-4)[nH]2)N(C(=O)[C@H](N)c2ccccc2)C1 [Example OL, Methyl {(2S)-1-[(2S)-2-(9-{2-[(2S,4S)-[(2R)-2-amino-2-phenylacetyl]-4-(methoxymethyl)pyrrolidin-2-yl]-1H-imidazol-5-yl}-1,11-dihydroisochromeno[4′,3′:6,7]naphtho[1,2-d]imidazol-2-yl)pyrrolidin-1-yl]-3-methyl-1-oxobutan-2-yl}carbamate] | < 1 | 0.047 | < 1 | 0.07 | < 1 | 0.052 | 0.052 |  |  | < 1 | 0.012 |  |  |  |
| CC[C@H](C)[C@H](NC(=O)OC)C(=O)N1[C@@H](C)CC[C@H]1c1ncc(-c2ccc3c(c2)COc2cc4c(ccc5nc([C@@H]6C[C@H](COC)CN6C(=O)[C@@H](NC(=O)OC)C(C)C)[nH]c54)cc2-3)[nH]1 [Example OX, Methyl {(2S)-1-[(2S,4S)-2-(9-{2-[(2S,5S)-1-{(2S,3S)-2-[(methoxycarbonyl)amino]-3-methylpentanoyl}-5-methylpyrrolidin-2-yl]-1H-imidazol-5-yl}-1,11-dihydroisochromeno[4′,3′:6,7]naphtho[1,2-d]imidazol-2-yl)-4-(methoxymethyl)pyrrolidin-1-yl]-3-methyl-1-oxobutan-2-yl}carbamate] | < 1 | 0.007 | < 1 | 0.113 | < 1 |  | 0.107 |  |  | < 1 | 0.006 |  |  |  |
| COC(=O)N[C@H](C(=O)N1C[C@@H](COC(F)F)C[C@H]1c1nc2ccc3cc4c(cc3c2[nH]1)OCc1cc(-c2cnc([C@@H]3CC[C@H](C)N3C(=O)[C@@H](NC(=O)OC)C(C)C)[nH]2)ccc1-4)C(C)C [Example PS, methyl {(2S)-1-[(2S,5S)-2-(5-{2-[(2S,4S)-4-[(difluoromethoxy)methyl]-1-{(2S)-2-[(methoxycarbonyl)amino]-3-methylbutanoyl}pyrrolidin-2-yl]-1,11-dihydroisochromeno[4′,3′:6,7]naphtho[1,2-d]imidazol-9-yl}-1H-imidazol-2-yl)-5-methylpyrrolidin-1-yl]-3-methyl-1-oxobutan-2-yl}carbamate] | < 1 | 0.005 | < 1 | 0.077 | < 1 |  | 0.113 |  |  | < 1 | 0.004 |  |  | 44.4 |
| COC(=O)N[C@H](C(=O)N1C[C@@H](COC(F)F)C[C@H]1c1ncc(-c2ccc3c(c2)COc2cc4c(ccc5nc([C@@H]6CC[C@H](C)N6C(=O)[C@@H](NC(=O)OC)C(C)C)[nH]c54)cc2-3)[nH]1)C(C)C [Example PT, methyl {(2S)-1-[(2S,4S)-4-[(difluoromethoxy)methyl]-2-(5-{2-[(2S,5S)-1-{(2S)-2-[(methoxycarbonyl)amino]-3-methylbutanoyl}-5-methylpyrrolidin-2-yl]-1,11-dihydroisochromeno[4′,3′:6,7]naphtho[1,2-d]imidazol-9-yl}-1H-imidazol-2-yl)pyrrolidin-1-yl]-3-methyl-1-oxobutan-2-yl}carbamate] | < 1 | 0.007 | < 1 | 0.383 | < 1 |  | 0.182 |  |  | < 1 | 0.007 |  |  |  |
| COC[C@H]1C[C@@H](c2ncc(-c3ccc4c(c3)COc3cc5c(ccc6nc([C@@H]7C[C@H](COC(F)F)CN7C(=O)[C@@H](NC(=O)OC)C(C)C)[nH]c65)cc3-4)[nH]2)N(C(=O)[C@@H](NC(=O)OC)C(C)C)C1 [Example PU, methyl {(2S)-1-[(2S,4S)-2-(5-{2-[(2S,4S)-4-[(difluoromethoxy)methyl]-1-{(2S)-2-[(methoxycarbonyl)amino]-3-methylbutanoyl}pyrrolidin-2-yl]-1,11-dihydroisochromeno[4′,3′:6,7]naphtho[1,2-d]imidazol-9-yl}-1H-imidazol-2-yl)-4-(methoxymethyl)pyrrolidin-1-yl]-3-methyl-1-oxobutan-2-yl}carbamate] | < 1 | 0.012 | < 1 | 0.068 | < 1 |  | 0.442 |  |  | < 1 | 0.006 |  |  |  |
